Patent publication US10111882B2, “SYK inhibitors” (Gilead Sciences, Inc., priority 2016, dated 2018)
Values joined by “and” are separate entries in the source; they are usually repeats but may differ in a detail not shown here. Identical values can stand only once.

Experiments:
[1] = clinical; Nijjar J. S., et al., Rheumatology 2013; cited from earlier work
[2] = system: patients with previously untreated AML; test: Phase 1b/2 study (NCT02343939): response (complete remission) to entospletinib monotherapy lead-in followed by daunorubicin/cytarabine induction; type: in vivo, human
Source text: (§1) Patients with residual disease two weeks after chemotherapy received a second induction cycle identical to the first.

[3] = system: patients with previously untreated AML; test: Phase 1b/2 study (NCT02343939): platelet counts and platelet transfusions (FIG. 2, FIG. 3); type: in vivo, human; details: for mean number of platelet transfusions required per subject: across monotherapy lead-in and induction cycles; for mean number of transfusions required per subject: induction treatment
Source text: as §1

[4] = system: patients with previously untreated AML; test: Phase 1b/2 study (NCT02343939): tolerability, dose limiting toxicity and adverse events
Source text: as §1

[5] = system: patients with previously untreated AML; test: Phase 1b/2 study (NCT02343939): absolute neutrophil counts / neutrophil recovery (FIG. 1)
Source text: as §1

COc1cc(Nc2ncc(F)c(Nc3ccc4c(n3)N(COP(=O)(O)O)C(=O)C(C)(C)O4)n2)cc(OC)c1OC [Fostamatinib]
adverse side effects [1]: hypertension, neutropenia and transaminitis

c1cn2cc(-c3ccc4cn[nH]c4c3)nc(Nc3ccc(N4CCOCC4)cc3)c2n1 [entospletinib]
patients requiring a second induction ([2]; 200 mg BID, 3 patients): two required a second induction
patients requiring a second induction ([2]; 400 mg BID, 6 patients): none required a second induction
response after the 14 day entospletinib monotherapy window ([2]; person with 11q23-rearranged AML, prior to chemotherapy): morphologic and cytogenetic CR
platelet transfusions during monotherapy window ([3]; 200 mg dose level): One subject received platelet transfusions
platelet transfusions during monotherapy window ([3]; 400 mg dose level): no transfusions were required
mean number of platelet transfusions required per subject ([3]; 200 mg dose level): 8.7
mean number of platelet transfusions required per subject ([3]; 400 mg dose level): 4.1
mean number of platelet transfusions required per subject ([3]; overall (both dose levels)): 5.5
platelet response during the window period ([3]; another patient with 11q23-rearranged AML, monotherapy window): significant platelet response
mean number of transfusions required per subject ([3]; Cycle 1 (with daunorubicin/cytarabine)): 4.1
mean number of transfusions required per subject ([3]; Cycle 2 (with daunorubicin/cytarabine)): 5.5
platelet count ([3]; two week entospletinib monotherapy window): remained stable, or in some cases, improved from baseline
dose limiting toxicity (DLT) ([4]; 200 mg BID po, three patients): no DLT was observed
dose limiting toxicity (DLT) ([4]; 400 mg BID po, 3 additional patients (DL 1 expansion)): none of whom experienced DLT
adverse event possibly related to entospletinib ([4]; 400 mg BID po, one of three patients (documented fungal pneumonia), did not meet DLT criteria): grade 3 pneumonitis
tolerability of single-agent entospletinib ([4]; monotherapy window period (up to 14 days), before chemotherapy): well tolerated
most common non hematologic adverse events ([4]; overall, inclusive of intensive chemotherapy periods (daunorubicin + cytarabine)): febrile neutropenia, nausea, and diarrhea
recovery time from severe neutropenia ([5]; 200 mg dose level, only evaluable subject with severe neutropenia at baseline): 66 days
ANC recovered to during treatment ([5]; 400 mg dose level, all three evaluable subjects under severe neutropenia cutoff of 200/μL ANC at baseline): above 200 /μL
individual time to recovery from severe neutropenia ([5]; 400 mg dose level, individual subjects with severe neutropenia at baseline): 8 days (2×) and 14 days
subjects experiencing severe neutropenia during monotherapy lead-in ([5]; 400 mg dose level, subjects without severe neutropenia at baseline, recovered to above 200/μL by end of first induction cycle): two of the five subjects
median (Q1, Q3) time to recovery from severe neutropenia ([5]; 400 mg dose level, three subjects with severe neutropenia at baseline): 8 (8, 14) days
absolute neutrophil counts (ANC) ([5]; entospletinib monotherapy lead-in period): remained largely stable
severe neutropenia during induction treatment ([5]; five subjects (both dose levels) without severe neutropenia at baseline): none experienced severe neutropenia
